Patent publication US7737250B2, “Peptides for treating axonal damage, inhibition of neurotransmitter release and pain transmission, and blocking calcium influx in neurons” (Mount Sinai School of Medicine of New York University, priority 2003, dated 2010)

Tests used:
[1] = test system: secretion of Substance P from DRG neurons; assay: Substance P secretion, single-cell immunoblot assay; assay type: cell-based, chick; conditions: DRG neurons pre-incubated with peptide 1.4 μg/ml for 1 hour
Description: Secretion Assay: Secretion of substance P was analyzed using the single-cell immunoblot method adapted from Huang and Neher (Huang, L. Y., Neher, E. (1996) Neuron. 17, 135-45.). Briefly, polyvinylidene difluoride transfer membranes (Immobilon P brand from Millipore) were cut to […] and placed in a 6-well plate. Membranes were pre-wetted with methanol for 20 s, rinsed with distilled water and allowed to equilibrate in test solution for >1 hr. In parallel, DRG cells plated were incubated with media containing AP-YF or AP-Scr (1.4 μg/ml) for 1 hour. This media was removed, and replaced with 70 μl of test solution. The membranes were then placed on top of the cells, and allowed to incubate at 37° C. in a humidified CO2 incubator for 30 min. The membranes were then carefully removed from the cells and allowed to dry completely and fixed with powdered paraformaldehyde at 80° C. for 1 hr. Fixed membranes were rinsed in PBS (1 mM KH2PO4, 10 mM Na2HPO4, 137 mM NaCl, 2.7 mM KCl) containing 1% Triton X-100 (PBS-T) to remove excess paraformaldehyde, and blocked with PBS-T containing 3% fetal bovine serum (FBS) for 30 min at room temperature. The membranes were incubated with anti-substance P antibody (Santa Cruz) at 1:200 dilution in PBS-T with 1% FBS overnight in 37° C. incubator. The next day the membranes were developed with a peroxidase/diamninobenzidine (DAB) reaction using the ABC staining kit from Santa Cruz Biotechnology. Images were taken using a CCD camera, and analyzed using Photoshop and NIH image software. Data were plotted by assigning an upper and lower limit of gray values and plotting % of cells at a range within those limits. By plotting graphs as % of cells in a dynamic range, multiple experimental runs were pooled.

[2] = test system: mouse cerebellar granular neurons; assay: Neurite outgrowth assay; assay type: cell-based; conditions: 30 μg/ml peptide; for average neurite length: 24 h in culture
Description: For neurite outgrowth assays, chick Ng-CAM was purified from chick brain using an antibody-based affinity column according to techniques well known in the art. The anti-Ng-CAM antibody was antibody 8D9 (Developmental Studies Hybridoma Bank, University of Iowa). Then purified chick Ng-CAM (50 μg/ml) or mouse laminin (Invitrogen, 100 μg/ml) was spotted on a 35 mm plastic culture dish at room temperature (RT) for 1 hr. After washing with PBS, the plastic surface was blocked with 1% Bovine Serum Albumin in phosphate buffered saline (13SA/PBS) at RT. Negative control dishes were coated with 1% Bovine Serum Albumin in phosphate buffered saline (BSA/PBS) at RT.
Cerebellar cells were prepared from postnatal day 4 (P4) mouse by trypsinization followed by trituration. Postnatal day 4 (P4) mouse cerebellum was minced in Calcium/Magnesium-free phosphate buffer (Ca/Mg-free PBS). Minced cerebellum was then treated with 0.05% Trypsin (Gibco) in Ca/Mg-free PBS for 15 minutes at 37° C. Trypsinization was halted by addition of 10% Fetal Calf Serum (Hyclone). Trypsinized cells were then triturated 5 times with a fire-polished Pasteur pipette to dissociate the cells. The remaining cell clumps were allowed to settle, and the suspended cells were plated and maintained for use in the neurite outgrowth assays.
Cultured cerebellar cells were resuspended in BME/B-27 medium (BME medium plus B-27 supplement, both from Gibco) supplemented with penicillin/streptomycin (Gibco) to a cell density of 5×10^5 cells/ml. Then 250 μl of this cell suspension was plated on the dishes. AP-YF or AP-Scramble peptides dissolved in Hank's Balanced Salt Solution (Gibco) were added to the plated cells at final concentration of 30 μg/ml. Cultures were incubated at 37° C. for 24 hrs in 5% CO2. These cultures were fixed with 4% paraformaldehyde and images were collected on a Zeiss Axiovert 100TV microscope using a 100× plan neofluor objective. Neurite outgrowth measurements were performed using NIH image software. Data was expressed as average neurite length in μm (+/− standard deviation). P-values were determined using Student's t-test analysis. Microsoft Excel was used to plot the data as % neurites of length greater than Xpm versus neurite length X (in μm).
Mouse cerebellar granular neurons were plated on tissue culture dishes coated with chick Ng-CAM, a chick homolog of L1-CAM, or on tissue culture dishes coated with mouse laminin. The Ng-CAM substrate interacts with cell-surface L1-CAM, while laminin substrate interacts with cell surface integrins and therefore serves as the negative control. These cultures were treated with either AP-YF or AP-Scramble peptides. After 24 hours of culture, the neurons were fixed and neurite outgrowth lengths w-ere measured by NIH image software degree (in μm).

[3] = test system: complex containing L1-CAM, ankyrin B and Cav2.2; assay: Co-precipitation of L1-CAM and ankyrin B with Cav2.2 channel protein from DRG neurons; assay type: cell-based; conditions: chick DRG neurons treated with saline; peptide pretreatment
Description: Co-precipitation: 1×10^6 DRG cells were used for each condition. DRG neurons were exposed to control solution containing 100 μM bicuculline or 100 μM GABA in the presence of 100 μM bicuculline. After agonist treatment, DRG neurons were lysed with ice-cold buffer (phosphate buffered saline, pH 7.4, containing 250 μM sodium pervanadate, 1% (v/v) NP-40, 1 mM Pefabloc, 1 mM EDTA, 1 mM EGTA, 10 μg/ml pepstatin, 10 μg/ml leupeptin, and 100 μg/ml soybean trypsin inhibitor, 100 μg/ml calpain I and 100 μg/ml calpain II inhibitors. The α1subunit of the Cav2.2 channel was immunoprecipitated as previously described (Schiff, M. L et al., (2000). Nature 408:723-726.).
Cell culture, transmitter application: Cell culture and transmitter application, were performed as described in Example 10, supra. For experiments determining the effect of activation of GABAB receptors upon L1-CAM-ankyrin-calcium channel interaction in DRG neurons, calcium channels were precipitated from DRG neurons treated with saline or baclofen for 20 seconds using anti-pan alpha 1 antibody and then immunoblotted for ankyrin (anti-ankyrin B antibody) or L1-CAM (8D9 anti-NgCAM).

[4] = test system: Cav2.2 channels; assay: Calcium channel distribution by confocal indirect immunofluorescence in DRG neurons; assay type: cell-based, chicken; conditions: DRG neurons pretreated with peptide 1.4 μg/ml, 30 min
Description: Antibodies: Primary antibody: rabbit anti-pan α1 binds Ca channel (1:200 dilution, [1.5 μg/ml) [Alomone Labs; Jerusalem, Israel]. Secondary antibodies: (1:200 dilution, 10 μg/ml): tetramenthylrhodamine conjugated goat anti-rabbit IgG (H+L) [Molecular Probes; Eugene, OR]
Dorsal root ganglia were dissected from 11 to 12 day old embryos, incubated for 30 min in saline containing nominal Ca 2^+ and Mg 2^+, and 0.05% collagenase (type A, Boehringer Mannheim). Ganglia were dissociated mechanically into single cells by trituration in culture medium containing Dulbecco's modified Eagle's medium supplemented with 10% horse serum, 5% chicken embryo extract, penicillin, streptomycin, glutamine, and nerve growth factor. Cells were plated at a density of ˜50,000 cells/collagen-coated 35 mm tissue culture dish and studied between 1 and 3 days in vitro.
Immunohistochemistry: Cultures grown on poly-L-lysine cover glass slips were exposed to saline or 100 mM NE (norepinephrine), fixed and permeabilized in methanol at −20° C. for 15-minutes or 20 second (for residual experiment) followed by 3×5-min washes in PHEM Buffer [60 mM PIPES, 25 mM HEPES, 10 mM EGTA, 2 mM MgCl2, pH 6.9]. Cells were alternatively fixed with 4% paraformaldehyde in PHEM buffer, pH 6.9 for 20-min, washed 3×3-min with PHEM buffer and permeabilization with 0.1% Triton X-100/PHEM buffer for 3-min. Blocking was performed using 5% BSA in PHEM Buffer for 1-h at 4 C. Following overnight incubation with primary antibody in 1% BSA and 1% normal goat sera in PHEM Buffer at 4 C. After washes with PHEM Buffer, cover slips were incubated with fluorophore-conjugated secondary antibodies in 1% BSA PHEM Buffer for 1.5 hours at room temperature in the dark. […]
Images of fixed cells were obtained with a pinhole setting of 0.95 using a UV 100× 1.4NA oil Leica objective lens and an optical zoom between 1.4 and 2× at slow acquisition speed with 4× frame averaging accumulation. The number of sections was calculated by the Leica TCS software based on acquisition of sections at 240 nm intervals in the Z-plane. […]

Sequence | high K^+-induced secretion of Substance P [1] | average neurite length ([2]; on Ng-CAM substrate) | co-precipitation of L1-CAM and ankyrin B with Cav2.2 channel protein [3] | Cav2.2 channel distribution (plasma membrane vs cytoplasm) [4] | neurite extension above control levels ([2]; on Ng-CAM substrate, 24 h, vs AP-Scramble) | axon extension on laminin ([2]; on laminin substrate, 24 h, vs AP-Scramble)
RQIKIWFQNRRMKWKKFQGIFSGDENFQ [AP-Scramble] | did not affect secretion significantly | 21 μm | not | no effect |  | 
RQIKIWFQNRRMKWKKQFNEDGSFIGQF [AP-YF] | blocks high K^+-induced secretion | 32 μm | abolished the interaction | induces removal of Cav2.2 channels | 55% | not significantly affected
